Data reported in patent publication US20260053812A1, “METHODS OF TREATING HYPERTENSION WITH A COMBINATION OF AN ALDOSTERONE SYNTHASE INHIBITOR AND A DIURETIC” (Mineralys Therapeutics, Inc., priority 2022, published 2026).
Marks after values point to notes of the source that are not given here.

Columns and labels:
[1] = Estimated glomerular filtration rate (eGFR, CKD-EPI equation); format: in vivo, human
[2] = Serum potassium; format: in vivo, human
Source text: Safety endpoints of this study are: • (a) Incidence and severity of all spontaneously reported adverse events (AEs) • (b) Changes in vital signs (standing SBP, standing DBP, body temperature, heart rate, and respiratory rate) • (c) Changes in electrocardiogram parameters (including cardiac intervals: PR, QRS, QT, and corrected QT interval using Fridericia's formula) • (d) Changes in clinical laboratory assessments (hematology, chemistry, coagulation, and urinalysis) • (e) Change in office-measured SBP from Study Week 8 (end-of-treatment period to end of follow up (i.e. end of Study Week 12 for Part 1 and end of Study 10 for Part 2).
The Safety Analysis Set includes all enrolled subjects who received at least one dose of study treatment (MLS-101 or placebo). In analyses performed on the Safety Analysis Set, subjects will be analyzed according to their actual treatment received.

## CC(=O)N[C@H]1CC[C@H](NC(=O)CN2CCN(c3nncc(-c4ccc(C)cc4)n3)CC2)CC1 [Compound A HBr]
[1]; Part 1, 50 mg QD, Week 8
  Estimated Glomerular Filtration Rate, mean change from baseline: −4.64 mL/min/1.73 m^2
  Estimated Glomerular Filtration Rate, mean observed: 72.54 mL/min/1.73 m^2
[1]; Part 1, 100 mg QD, BL
  Estimated Glomerular Filtration Rate, mean observed: 77.35 mL/min/1.73 m^2
[1]; Part 1, 100 mg QD, Week 1
  Estimated Glomerular Filtration Rate, mean change from baseline: −6.80 mL/min/1.73 m^2
  Estimated Glomerular Filtration Rate, mean observed: 70.81 mL/min/1.73 m^2
[1]; Part 1, 100 mg QD, Week 2
  Estimated Glomerular Filtration Rate, mean change from baseline: −10.91 mL/min/1.73 m^2
  Estimated Glomerular Filtration Rate, mean observed: 65.56 mL/min/1.73 m^2
[1]; Part 1, 100 mg QD, Week 3
  Estimated Glomerular Filtration Rate, mean change from baseline: −9.24 mL/min/1.73 m^2
  Estimated Glomerular Filtration Rate, mean observed: 67.22 mL/min/1.73 m^2
[1]; Part 1, 100 mg QD, Week 4
  Estimated Glomerular Filtration Rate, mean change from baseline: −9.46 mL/min/1.73 m^2
  Estimated Glomerular Filtration Rate, mean observed: 67.23 mL/min/1.73 m^2
[1]; Part 1, 100 mg QD, Week 5
  Estimated Glomerular Filtration Rate, mean change from baseline: −10.50 mL/min/1.73 m^2
  Estimated Glomerular Filtration Rate, mean observed: 66.19 mL/min/1.73 m^2
[1]; Part 1, 100 mg QD, Week 6
  Estimated Glomerular Filtration Rate, mean change from baseline: −9.94 mL/min/1.73 m^2
  Estimated Glomerular Filtration Rate, mean observed: 66.19 mL/min/1.73 m^2
[1]; Part 1, 100 mg QD, Week 7
  Estimated Glomerular Filtration Rate, mean change from baseline: −9.50 mL/min/1.73 m^2
  Estimated Glomerular Filtration Rate, mean observed: 66.96 mL/min/1.73 m^2
[1]; Part 1, 100 mg QD, Week 8
  Estimated Glomerular Filtration Rate, mean change from baseline: −7.83 mL/min/1.73 m^2
  Estimated Glomerular Filtration Rate, mean observed: 68.42 mL/min/1.73 m^2
[1]; Part 2, 100 mg QD, BL
  Estimated Glomerular Filtration Rate, mean observed: 79.90 mL/min/1.73 m^2
[1]; Part 2, 100 mg QD, Week 1
  Estimated Glomerular Filtration Rate, mean change from baseline: −9.65 mL/min/1.73 m^2
  Estimated Glomerular Filtration Rate, mean observed: 70.73 mL/min/1.73 m^2
[1]; Part 2, 100 mg QD, Week 2
  Estimated Glomerular Filtration Rate, mean change from baseline: −8.05 mL/min/1.73 m^2
  Estimated Glomerular Filtration Rate, mean observed: 72.07 mL/min/1.73 m^2
[1]; Part 2, 100 mg QD, Week 3
  Estimated Glomerular Filtration Rate, mean change from baseline: −7.33 mL/min/1.73 m^2
  Estimated Glomerular Filtration Rate, mean observed: 72.69 mL/min/1.73 m^2
[1]; Part 2, 100 mg QD, Week 4
  Estimated Glomerular Filtration Rate, mean change from baseline: −7.20 mL/min/1.73 m^2
  Estimated Glomerular Filtration Rate, mean observed: 72.92 mL/min/1.73 m^2
[1]; Part 2, 100 mg QD, Week 5
  Estimated Glomerular Filtration Rate, mean change from baseline: −8.69 mL/min/1.73 m^2
  Estimated Glomerular Filtration Rate, mean observed: 71.23 mL/min/1.73 m^2
[1]; Part 2, 100 mg QD, Week 6
  Estimated Glomerular Filtration Rate, mean change from baseline: −10.87 mL/min/1.73 m^2
  Estimated Glomerular Filtration Rate, mean observed: 68.04 mL/min/1.73 m^2
[1]; Part 2, 100 mg QD, Week 7
  Estimated Glomerular Filtration Rate, mean change from baseline: −7.34 mL/min/1.73 m^2
  Estimated Glomerular Filtration Rate, mean observed: 72.82 mL/min/1.73 m^2
[1]; Part 2, 100 mg QD, Week 8
  Estimated Glomerular Filtration Rate, mean change from baseline: −7.95 mL/min/1.73 m^2
  Estimated Glomerular Filtration Rate, mean observed: 72.43 mL/min/1.73 m^2
[1]; across dosing cohorts
  Change in estimated glomerular filtration rate (eGFR): dose-dependent and reversible reduction
[2]; 25 mg BID Part 1, Week 8
  Increase in potassium levels relative to baseline: 0.341 mmol/L
[2]; 50 mg QD (n = 28)
  Serum K+ Mean Change from Baseline to Wk 8: +0.25 mmol/L
[2]; 100 mg QD (n = 61)
  Serum K+ Mean Change from Baseline to Wk 8: +0.29 mmol/L
[2]; 100 mg QD Part 2, Week 8
  Increase in potassium levels relative to baseline: 0.208 mmol/L
[2]; 100 mg QD, Part 1
  Number of individuals with verified or multiple increased serum K+ 5.2-5.5 mMol/L during treatment: 5
  Number of individuals with verified or multiple increased serum K+ 5.6-6.0 mMol/L during treatment: 3
  Number of individuals with verified or multiple increased serum K+ 6.1-6.5 mMol/L during treatment: 0
  Percent of individuals with increased serum K+ 5.2-5.5 mMol/L: (18.5%)
  Percent of individuals with increased serum K+ 5.6-6.0 mMol/L: (10.7%)
[2]; 100 mg QD, Part 1, isolated incident not verified by repeat measurement
  Number of individuals with increased serum K+ >6.5 mMol/L during treatment: 1*
[2]; 100 mg QD, Part 2
  Number of individuals with verified or multiple increased serum K+ 5.2-5.5 mMol/L during treatment: 1
  Number of individuals with verified or multiple increased serum K+ 5.6-6.0 mMol/L during treatment: 0
  Number of individuals with verified or multiple increased serum K+ 6.1-6.5 mMol/L during treatment: 0
  Number of individuals with verified or multiple increased serum K+ >6.5 mMol/L during treatment: 0
  Percent of individuals with increased serum K+ 5.2-5.5 mMol/L: (4%)
[2]; 100 mg QD, Pooled
  Number of individuals with verified or multiple increased serum K+ 5.2-5.5 mMol/L during treatment: 6
  Number of individuals with verified or multiple increased serum K+ 5.6-6.0 mMol/L during treatment: 3
  Number of individuals with verified or multiple increased serum K+ 6.1-6.5 mMol/L during treatment: 0
  Number of individuals with verified or multiple increased serum K+ >6.5 mMol/L during treatment: 0
  Percent of individuals with increased serum K+ 5.2-5.5 mMol/L: (10.3%)
  Percent of individuals with increased serum K+ 5.6-6.0 mMol/L: (5.2%)
[2]; Part 1, N 26*
  Change in group mean serum potassium (K+), Mean: +0.50 mMol/L
[2]; Part 1, N 26* (dose not given in Table 5)
  Change in group mean serum potassium (K+): +0.50 mMol/L
[2]; Part 2, N 31
  Change in group mean serum potassium (K+), Mean: +0.23 mMol/L
[2]; Part 2, N 31 (dose not given in Table 5)
  Change in group mean serum potassium (K+): +0.23 mMol/L
[2]; Pooled, N 57
  Change in group mean serum potassium (K+), Mean: +0.35 mMol/L
[2]; Pooled, N 57 (dose not given in Table 5)
  Change in group mean serum potassium (K+): +0.35 mMol/L
[2]; active treatment cohorts compared with placebo, Parts 1 and 2
  Serum potassium levels: increased
[2]; pooled (Part 1 and Part 2) 100 mg QD safety set (n=60)
  Episodes of severe hyperkalemia: no episodes of severe hyperkalemia
[2]; whole study, none an SAE, all resolved after discontinuation or dose adjustment, listed as lorundrostat
  Subjects with transient elevated serum potassium greater than 6.0 mmol/L: seven
